ChEMBL document CHEMBL1131951, “Sialidase inhibitors related to zanamivir: synthesis and biological evaluation of 4H-pyran 6-ether and ketone” (Bioorg Med Chem Lett, 1999)

Experiments:
[1] = tested on: Influenza A virus; assay: Inhibitory activity against sialidase of influenza A; format: functional, organism-based
[2] = tested on: Influenza B virus; assay: Inhibitory activity against sialidase of influenza B; format: functional, organism-based

Row | Compound | IC50 [1] [nM] | IC50 [2] [nM]
1 | CCC(CC)O[C@@H]1OC(C(=O)O)=C[C@H](N)[C@H]1NC(C)=O | 770 | 42000
2 | CCN(CC)C(=O)[C@@H]1OC(C(=O)O)=C[C@H](N)[C@H]1NC(C)=O | 3 | 360
3 | CCC(CC)C(=O)[C@@H]1OC(C(=O)O)=C[C@H](N)[C@H]1NC(C)=O | 2 | 470
4 | CCC(CC)C(O)[C@@H]1OC(C(=O)O)=C[C@H](N)[C@H]1NC(C)=O (some centres not stated) | 39 | 7400
5 | CCC(CC)O[C@@H]1C=C(C(=O)O)C[C@H](N)[C@H]1NC(C)=O [OSELTAMIVIR CARBOXYLATE] | 2 | 32
6 | CC(=O)N[C@H]1[C@H]([C@H](O)[C@H](O)CO)OC(C(=O)O)=C[C@@H]1NC(=N)N [ZANAMIVIR] | 5 | 4
